Experimental data as given in patent US11352317B2, “Rosin-based small molecular weight hydrogelator and its application” (Jiangnan University, priority 2019, dated 2022).

Legend:
[1] = Steady-state shear of comparative aqueous solutions; format: physicochemical; conditions: 5 mmol·L^−1 aqueous solution; for viscosity of the system (steady-state shear): high or low shear rates
[2] = Determination of surface tension (ring method); format: physicochemical; conditions: aqueous, 25° C.
Experimental: Determination of surface tension. A series of aqueous surfactant solutions having different concentrations were prepared, and the surface tension was measured by a ring method at 25° C., and the surface tension curve was plotted.

[3] = Circular dichroism spectrum of gel; format: physicochemical; conditions: 5 mmol·L^−1 gel, 300-180 nm
Experimental: The measurement was carried out on a circular dichroism spectrometer model MOS-450. The signal was recorded at intervals of 0.1 nm within the wavelength range of 300-180 nm. Gel samples were measured using a 0.1 mm quartz sample cell.

[4] = Preparation of O/W type gel emulsion at different oil-water ratios; format: physicochemical; conditions: 20 mmol·L^−1 stabilizer, oil phase volume fraction 10% to 90%
Experimental: An amount of 6-dehydroabietylamide amine oxide was added to a 22 mm (d)×52 mm (h) glass vial with a total volume of 10 mL. After adding a certain amount of deionized water, the vial was heated in a water bath at 50° C. until the 6-dehydroabietylamide amine oxide was completely dissolved to obtain a transparent solution. Different volumes of oil were added to the 6-dehydroabietylamide amine oxide solution (the volume ratios of 6-dehydroabietylamide amine oxide solution to oil were 1:9, 2:8, 3:7, 4:6, 5:5, 6:4, 7:3, 8:2, and 9:1, and total volume was 4 mL), then the mixture was emulsified at 11,000 r/min using an ultraturrax homogenizer (IKA T18 basic, S18N-10G head) for 2 min. The emulsion was allowed to stand and cool at a low temperature to form a white gel emulsion.

[5] = Gel sustained-release performance test (in vitro release of embedded Rhodamine B); format: physicochemical; conditions: embedded in 20 mmol·L^−1 hydrogel, 37° C.
Experimental: Rhodamine B was embedded in a hydrogel formed by 20 mmol·L^−1 6-dehydroabietylamide-N,N-dimethyl-hexylamine oxide and in vitro release experiments were carried out in a constant temperature oscillating water bath at 37° C. The absorbance of the release solution was measured by an ultraviolet-visible spectrophotometer to obtain an in vitro release curve. […] It can be seen that the hydrogel formed by 6-dehydroabietylamide-N,N-dimethyl-hexylamine oxide had good sustained-release ability and can be used in the fields of drug sustained release and so on.

[6] = Gel emulsion stability test; format: physicochemical; conditions: 20° C.; for Stability: gel emulsion, 0.22% stabilizer
Experimental: To the 0.22% solution of 6-dehydroabietylamide amine oxide, different volumes of oil were added (the volume ratios of 6-dehydroabietylamide amine oxide solution to oil were 0.2:9.8, 3:7, 5:5,7:3, and 9.9: 0.1, and total volume was 4 mL), and then the mixture was emulsified at 11,000 r/min using an ultraturrax homogenizer (IKA T18 basic, S18N-10G head) for 2 min. The emulsion was allowed to stand and cool at a low temperature to form a white gel emulsion.
The prepared gel emulsion was placed in a 20° C. incubator, and the stability of the gel emulsion was observed. When the concentration of 6-dehydroabietylamide-N,N-dimethyl-hexylamine oxide as stabilizer was 0.22% of the mass of the continuous phase, and the volume fraction of the disperse phase was in the range of 1%-98%, a gel emulsion was formed.

[7] = test system: L929 cells; assay: 3D cell incubation in hydrogel, FDA/PI staining; format: cell-based; conditions: 3D incubation in hydrogel, 24 h, 48 h and 96 h
Experimental: L929 cells were encapsulated in a 6-dehydroabietylamide-N,N-dimethyl-hexylamine oxide gel under sterile conditions for 3D cell incubation. The cell suspension was added into the 6-dehydroabietylamide-N,N-dimethyl-hexylamine oxide solution with a sol state, and a cell/hydrogel system was formed within 30 s, and further incubated at 37° C. for 15 min. Thereafter, 2 mL of RPMI-1640 medium containing 10% FBS fetal bovine serum and 1% penicillin/streptomycin was gently added to the incubation dish, and the cell/hydrogel system was incubated in a humidified atmosphere of 37° C. and 5% CO2. The medium was replaced after 1 h of incubation and then replaced every 12 h. After incubation for 24 h, 48 h and 96 h, the cell/hydrogel system was stained with FDA/PI and the cells were observed by a confocal laser scanning microscope. […] It can be seen that 6-dehydroabietylamide-N,N-dimethyl-hexylamine oxide hydrogel can be used as a 3D cell incubation scaffold and had potential application in cell therapy and tissue regeneration.

[8] = Determination of gel behavior (vial inversion); format: physicochemical
Experimental: To 1 mL of deionized water, 6-dehydroabietylamide-N,N-dimethyl-hexylamine oxide was added (concentrations were 4 mmol·L^−1, 10 mmol·L^−1, 15 mmol·L^−1, 20 mmol·L^−1, and 25 mmol·L^−1, respectively). The solution was heated to 40° C. to completely dissolve the 6-dehydroabietylamide-N,N-dimethyl-hexylamine oxide, and then allowed to stand at room temperature, and the solution state was investigated.
It can be seen from the photograph of the appearance of a gel formed by 6-dehydroabietylamide-N,N-dimethyl-hexylamine oxide in FIG. 5 (concentrations from left to right were 4 mmol·L^−1, 10 mmol·L^−1, 15 mmol·L^−1, 20 mmol·L^−1, and 25 mmol·L^−1, respectively) that when the concentration of 6-dehydroabietylamide-N,N-dimethyl-hexylamine oxide was greater than 4 mmol·L^−1, the 6-dehydroabietylamide-N,N-dimethyl-hexylamine oxide can support its own weight without flowing after invertion, indicating the formed gel has excellent viscoelasticity.
In a hydrogel formed by 4 mmol·L^−1 of 6-dehydroabietylamide-N,N-dimethyl-hexylamine oxide, the critical gelling concentration of the 6-dehydroabietylamide-N,N-dimethyl-hexylamine oxide was only 0.176%. Upon conversion, on average, each gelling agent molecule can immobilize 13,889 water molecules, showing extremely high gelling efficiency.

[9] = Cryo-TEM microstructure of the gel system; format: physicochemical; conditions: 5 mmol·L^−1 hydrogel
Experimental: Sample preparation was carried out using an environment controlled low temperature sample preparation device Cryoplunge TM3, and the ambient temperature was fixed at 25° C. The relative humidity in the device cavity was adjusted to over 90%, about 5 μL of the sample was pipetted onto the surface of the micro-grid, and the droplets on the surface of the micro-gate were absorbed by patting the sample with the filter paper on both sides of Cp3 to obtain a very thin liquid film. The sample was then quickly inserted into liquid ethane cooled liquid nitrogen. The frozen sample was transferred to a sample rod cooled with liquid nitrogen and transferred to a transmission electron microscope for observation at an operating voltage of 120 kV. It can be seen from the in situ frozen transmission electron micrograph of a hydrogel sample formed by 5 mmol·L^−1 6-dehydroabietylamide-N,N-dimethyl-hexylamine oxide in FIG. 8 that the microscopic morphology of the hydrogel was a relatively rigid nanofiber having a cross-sectional diameter of about 10 nm and a length of more than 2 μm.
The reason was that the 6-dehydroabietylamide-N,N-dimethyl-hexylamine oxide molecule formed a left-handed helical fiber structure having a diameter of about 10 nm by molecular self-assembly. […]

critical micelle concentration [2] [mmol/L] | γcmc (surface tension at cmc) [2] [mN·m^−1] | chiral aggregate structure of nanofiber (CD signal) [3] | stability of dodecane/hydrogel emulsion [4] | release rate of Rhodamine B ([5]; in 40 h) [%] | release rate of Rhodamine B ([5]; within 5 h) [%] | stability of the gel emulsion after placing for one year ([6]; 0.22% of the mass of the continuous phase, disperse phase volume fraction 1%-98%) | water molecules immobilized per gelling agent molecule (on average) ([8]; at critical gelling concentration, upon conversion) | concentration at which gel supports its own weight without flowing after inversion ([8]; deionized water, dissolved at 40° C., stood at room temperature) | critical gelling concentration ([8]; in water, hydrogel formed by 4 mmol·L^−1, room temperature) [%] | cross-sectional diameter of nanofiber [9] | length of nanofiber [9] | SMILES | gel formation [1] | viscosity of the system (steady-state shear) [1] | Stability ([6]; continuous phase 0.2, disperse phase 9.8) | Stability ([6]; continuous phase 3, disperse phase 7) | Stability ([6]; continuous phase 5, disperse phase 5) | Stability ([6]; continuous phase 7, disperse phase 3) | Stability ([6]; continuous phase 9.9, disperse phase 0.1) | viability and proliferation of L929 cells in the gel [7]
– | – | – | – | – | – | – | – | – | – | – | – | CC(C)c1ccc2c(c1)CCC1C(C)(C(=O)NCC[N+](C)(C)[O-])CCCC21C (stereo not shown) [2-dehydroabietylamide-N,N-dimethyl-ethylamine oxide] | neither 2-dehydroabietylamide-N,N-dimethyl-ethylamine oxide nor 3-dehydroabietylamide-N,N-dimethyl-propylamine oxide could form a gel | comparable to the viscosity of water | – | – | – | – | – | –
– | – | – | – | – | – | – | – | – | – | – | – | CC(C)c1ccc2c(c1)CCC1C(C)(C(=O)NCCC[N+](C)(C)[O-])CCCC21C (stereo not shown) [3-dehydroabietylamide-N,N-dimethyl-propylamine oxide] | neither 2-dehydroabietylamide-N,N-dimethyl-ethylamine oxide nor 3-dehydroabietylamide-N,N-dimethyl-propylamine oxide could form a gel | comparable to the viscosity of water | – | – | – | – | – | –
0.56 | 35 | left-handed helix | no phase separation occurs | 76 | 28 | did not undergo demulsification | 13,889 | greater than 4 mmol·L^−1 | 0.176 | about 10 nm | more than 2 μm | CC(C)c1ccc2c(c1)CCC1C(C)(C(=O)NCCCCCC[N+](C)(C)[O-])CCCC21C (stereo not shown) [6-dehydroabietylamide-N,N-dimethyl-hexylamine oxide] | – | – | No demulsification occurs after incubation | No demulsification occurs after incubation | No demulsification occurs after incubation | No demulsification occurs after incubation | No demulsification occurs after incubation | higher viability and proliferative ability
